Data reported in article PMC11278233, “The Composition of Triterpene Glycosides in the Sea Cucumber Psolus peronii: Anticancer Activity of the Glycosides against Three Human Breast Cancer Cell Lines and Quantitative Structure–Activity Relationships (QSAR)” (Marine Drugs, 2024).
Like-named read-outs stand apart in the source and are kept apart here.

What was measured:
[1] = tested on: human erythrocytes; test: Hemolytic activity; format: cell-based; details: Erythrocyte, 1 h at 37 °C, lysis of 50% of erythrocytes
Description: A total of 450 g of human blood (B(III) Rh+) was used to obtain erythrocytes by centrifuging it three times for 5 min with phosphate-buffered saline (PBS) (pH 7.4) at 4 °C on the centrifuge LABOFUGE 400R (Heraeus, Hanau, Germany). Ice-cold PBS (pH 7.4) was used for resuspension of the erythrocyte residue to a final optical density of 1.5 at 700 nm, which was kept on ice. Then, 20 µL of the tested compound solutions was added to 180 µL of the erythrocyte suspension in V-bottom 96-well plates and exposed for 1 h at 37 °C. The layers were separated by centrifugation at 900 g for 10 min on the laboratory centrifuge LMC-3000 (Biosan, Riga, Latvia). A total of 100 µL of the supernatant was carefully decanted and transferred into a new flat plate. The values of erythrocyte lysis were measured on a microplate photometer Multiskan FC (Thermo Fisher Scientific, Waltham, MA, USA) at λ = 570 nm as the hemoglobin concentration in the supernatant. […] All the experiments were carried out in triple repetitions; p ≤ 0.05.

[2] = in vitro; format: cell-based, human; details: human
[3] = tested on: non-transformed epithelial cells of the mammary gland MCF-10A; test: in vitro; format: cell-based, human
[4] = tested on: human breast cancer cell line MCF-7; test: cells; format: cell-based; details: for IC50: Homo sapiens, MCF7, 24 h, read-out: Cytotoxicity, IC50 µM MCF-7; for Selectivity Index MCF-7: ratio of IC50 for healthy (MCF-10A) and cancer cells
[5] = tested on: human breast cancer cell line T-47D; test: cells; format: cell-based; details: for IC50: Homo sapiens, T47D, 24 h, read-out: Cytotoxicity, IC50 µM T-47D; for Selectivity Index T-47D: ratio of IC50 for healthy (MCF-10A) and cancer cells
[6] = tested on: triple-negative human breast cancer cell line MDA-MB-231; test: cells; format: cell-based; details: for IC50: Homo sapiens; for Selectivity Index MDA-MB-231: ratio of IC50 for healthy (MCF-10A) and cancer cells
[7] = tested on: MCF-7 cells; test: Colonogenic (colony formation) assay, MCF-7; format: cell-based; details: Homo sapiens, MCF7, 336 h, 14 days
Description: (§1) The cancer cells (MDA-MB-231, MCF-7 and T-47D lines) were cultured on 6-well plates at a density of 1 × 10^3 per well in control media (MEM media, 10% FBS, 10,000 U/mL of penicillin and […] of streptomycin) or in media supplemented with different concentrations of the glycosides. The cells were incubated for 14 days at 37 °C in a 5% CO2 humidified incubator. Then, the colonies were fixed with methanol (25 min), stained with a 0.5% solution of crystal violet (25 min), washed with H2O and dried in air. Counting of the grown colonies was carried out using a BIO-PRINT-Cx4 Edge-Fixed Pad-Container (Vilber, Collegien, France) device and using the software Bio-Vision SOFTWARE User and service manual-v18.01 (Vilber, Collegien, France). The results are presented as % of colony inhibition in relation to the control.

[8] = tested on: MDA-MB-231 cells; test: Colonogenic (colony formation) assay, MDA-MB-231; format: cell-based; details: Homo sapiens, 336 h, 14 days, read-out: inhibition of the growth of colonies
Description: as §1

[9] = tested on: MCF-7 cells; test: Wound healing (scratch) assay, MCF-7; format: cell-based, human; details: 1 and 2 μM, within 48 h, control migrated by 84.60 ± 2.12%
Description: (§2) To analyze the influence of the tested compounds on tumor cell migration, MCF-7 and MDA-MB-231 (5 × 10^5) cells attached to the plate’s plastic bottom were separated using a silicone insert from special migration plates (Culture-insert 2Well 24, ibiTreat). When the insert was removed, a gap of […] (according to the manufacturer’s data) between the cells was left. After 24 h, the cells were washed twice with PBS to remove cell debris and floating cells, treated with 1 and 2 μM of psolusosides A (2) and L (6) and placed in the real-time live cell imaging system Juli Stage (NanoEntek, Seoul, South Korea). Cells treated with the culture medium only were used as the control. The cell migration was analyzed in real time (15 min for each cycle). For the MDA-MB-231 cells, observations were carried out for 12 h (until complete healing of the wound area in the control); for MCF-7 cells, this time was 48 h. The results were processed using the program Juli^TM Stat (NanoEntek, South Korea).

[10] = tested on: MDA-MB-231 cells; test: Wound healing (scratch) assay, MDA-MB-231; format: cell-based, human; details: 2 μM, within 12 h, control 99.83 ± 0.08%
Description: as §2

[11] = tested on: T-47D cells; test: Colonogenic (colony formation) assay, T-47D; format: cell-based, human; details: 1 μM, 14 days
Description: as §1

[12] = MDA-MB-231, 24 h, read-out: Cytotoxicity, IC50 µM MDA-MD-231
[13] = MDA-MB-231, MTT assay, 48 h incubation, read-out: IC50 against MDA-MB-231 cells (antiproliferative effect)
[14] = MDA-MB-231, MTT assay, 72 h incubation, read-out: IC50 against MDA-MB-231 cells (antiproliferative effect)

SMILES	IC50 [1] [µM]	IC50 at 24 h [2] [µM]	cytotoxicity to non-transformed MCF-10A cells (result in words) [3]	IC50 [4] [µM]	Selectivity Index MCF-7 ([4]; 24 h of exposition)	Selectivity Index MCF-7 ([4]; 48 h of exposition)	Selectivity Index MCF-7 ([4]; 72 h of exposition)	IC50 [5] [µM]	Selectivity Index T-47D ([5]; 24 h of exposition)	Selectivity Index T-47D ([5]; 48 h of exposition)	Selectivity Index T-47D ([5]; 72 h of exposition)	IC50 [6, 12] [µM]	IC50 [6, 13] [µM]	IC50 [6, 14] [µM]	Selectivity Index MDA-MB-231 ([6]; 24 h of exposition)	Selectivity Index MDA-MB-231 ([6]; 48 h of exposition)	Selectivity Index MDA-MB-231 ([6]; 72 h of exposition)	inhibition at 1 µM [7] [%]	inhibition at 2 µM [7] [%]	inhibition at 5 µM [7] [%]	other results
C=C(C)CCC[C@]1(C)OC(=O)[C@]23CC=C4[C@@H](CC[C@H]5C(C)(C)[C@@H](O[C@@H]6OC[C@@H](O)[C@H](O)[C@H]6O[C@@H]6O[C@H](C)[C@@H](O[C@@H]7O[C@H](COS(=O)(=O)[O-])[C@@H](O)[C@H](O[C@@H]8O[C@H](COS(=O)(=O)[O-])[C@@H](O)[C@H](OC)[C@H]8O)[C@H]7O)[C@H](O)[C@H]6O)CC[C@]45C)[C@]2(C)CC(=O)[C@@H]31.[Na+].[Na+] [psolusoside A (2), psolusoside A]	1.05 ± 0.12	> 50	not cytotoxic	11.2 ± 0.4	4.47	1.84	0.59	9.52 ± 0.13	5.25	0.86	0.76	6.09 ± 0.87	3.87 ± 0.38	3.27 ± 0.27	8.21	2.18	2.09	33.8 ± 2.64	54.9 ± 1.92	96.88 ± 0.96	inhibition at 0.5 µM ([8]; 0.5 μM): 40.6 ± 5.62%; inhibition at 1 µM ([8]; 1 μM): 88.76 ± 0.81%; reduction of the migration of cells to the scratch area [9]: 33–42%; overgrowth of the wound area (migration) [10]: 30.01 ± 0.16%
C=C(C)CCC[C@]1(C)OC(=O)[C@]23CC=C4[C@@H](CC[C@H]5C(C)(C)[C@@H](O[C@@H]6OC[C@@H](O[C@@H]7O[C@H](COS(=O)(=O)[O-])[C@@H](O)[C@H](O)[C@H]7O)[C@H](O)[C@H]6O[C@@H]6O[C@H](C)[C@@H](O[C@@H]7O[C@H](COS(=O)(=O)[O-])[C@@H](O)[C@H](O[C@@H]8O[C@H](COS(=O)(=O)[O-])[C@@H](O)[C@H](OC)[C@H]8O)[C@H]7O)[C@H](O)[C@H]6O)CC[C@]45C)[C@]2(C)CC(=O)[C@@H]31.[Na+].[Na+].[Na+] [psolusoside L (6), psolusoside L]	1.83 ± 0.14	33.08 ± 0.29	slightly cytotoxic	13.7 ± 0.31	2.41	1.33	0.66	5.45 ± 0.04	6.07	1.25	0.91	6.39 ± 0.3	1.67 ± 0.16	1.24 ± 0.02	5.18	5.83	4.56	19.6 ± 0.24	89.67 ± 0.28	97.83 ± 0.25	inhibition at 2 µM ([8]; 2 μM): 90.4 ± 0.92%; growth of colonies (result in words) [11]: completely blocked; reduction of the migration of cells to the scratch area [9]: 33–42%; overgrowth of the wound area (migration) [10]: 6.03 ± 0.02%
